Data: patent publication EP3494999A1, “PSMA LIGANDS FOR IMAGING AND ENDORADIOTHERAPY” (Technische Universität München, priority 2017, dated 2019)
Square brackets hold non-standard residues; d marks the D form. Peptide text beside a SMILES is read from it. * marks the point of attachment. X1 = O=C(O)CC[C@H](NC(=O)N[C@@H](CCCCNC(=O)CCCCCCC(=O)*)C(=O)O)C(=O)O; DOTAGA = O=C(O)CN1CCN(CC(=O)O)CCN(C(CCC(=O)*)C(=O)O)CCN(CC(=O)O)CC1; dPhe(4-NH2) = Nc1ccc(C[C@@H](N)C(=O)O)cc1; dTyr(3-I) = N[C@H](Cc1ccc(O)c(I)c1)C(=O)O; Phe(4-NH2) = Nc1ccc(C[C@H](N)C(=O)O)cc1; d2Nal = N[C@H](Cc1ccc2ccccc2c1)C(=O)O

Assays:
[1] = target: T1, PSMA (Homo sapiens, UniProt Q04609); assay: Determination of IC50: competitive binding against ([125I]I-BA)KuE on cells; set-up: endogenous in cells; LNCaP is named only for the xenografts; details: for IC50: natLu complexes, displacement of ([125I]I-BA)KuE, 60 min on ice, HBSS (1% BSA)
T1 sequence (Q04609 whole entry): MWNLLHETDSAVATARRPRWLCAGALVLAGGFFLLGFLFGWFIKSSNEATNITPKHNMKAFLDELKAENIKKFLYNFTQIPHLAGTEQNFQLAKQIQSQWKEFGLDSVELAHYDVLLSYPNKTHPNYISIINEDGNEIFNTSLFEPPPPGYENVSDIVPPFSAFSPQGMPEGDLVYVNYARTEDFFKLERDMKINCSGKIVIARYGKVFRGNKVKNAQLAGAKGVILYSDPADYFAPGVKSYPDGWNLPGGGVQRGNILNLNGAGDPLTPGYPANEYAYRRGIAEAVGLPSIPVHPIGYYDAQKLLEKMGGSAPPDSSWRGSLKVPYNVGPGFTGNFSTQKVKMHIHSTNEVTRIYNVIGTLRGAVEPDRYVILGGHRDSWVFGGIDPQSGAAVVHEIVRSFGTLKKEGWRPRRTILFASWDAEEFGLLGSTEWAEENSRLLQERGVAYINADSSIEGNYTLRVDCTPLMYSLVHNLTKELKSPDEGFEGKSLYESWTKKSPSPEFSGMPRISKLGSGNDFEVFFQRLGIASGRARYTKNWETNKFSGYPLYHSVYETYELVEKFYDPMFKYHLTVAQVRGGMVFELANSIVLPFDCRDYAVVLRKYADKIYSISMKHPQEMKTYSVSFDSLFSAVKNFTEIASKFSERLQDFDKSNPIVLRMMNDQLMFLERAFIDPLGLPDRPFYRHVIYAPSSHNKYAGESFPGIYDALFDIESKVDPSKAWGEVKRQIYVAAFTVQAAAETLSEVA
Procedure: The corresponding ^natLu^III-complexes were prepared from a 2 mM aqueous solution of the PSMA inhibitor with a 2.5 molar excess of LuCl3 (20 mM solution), heated to 95 °C for 30 min. After cooling, the ^natLu^III-chelate formation was confirmed using HPLC and MS. […] Calculated monoisotopic mass (C67H92N11O23 Lu) = 1,593.6 found: m/z = 1,595.0 [M+H]^+, 798.2 [M+2H]^2+. [^natLu]DOTAGA-(4-NH2)f-y-nal-k-KuE ([^natLu]PSMA-5): HPLC (10 to 60% B in 15 min.): tR = 9.0 min K' = 3.5. Calculated monoisotopic mass (C76H102N13O24 Lu) = 1,755.7 found: m/z = 1,756.4 [M+H]^+, 879.0 [M+2H]^2+. [^natLu]DOTAGA-(4-NH2)F-y-nal-k-KuE ([^natLu]PSMA-6): HPLC (10 to 60% B in 15 min.): tR = 9.1 min K' = 3.6. Calculated monoisotopic mass (C76H102N13O24 Lu) = 1,755.7 found: m/z = 1,756.6 [M+H]^+, 878.8 [M+2H]^2+. [^natLu]DOTAGA-y-nal-k(Suc-(HO-δ-orn-γ-EuE))-OH ([^natLu]PSMA-7): HPLC (10 to 60 % B in 15 min): tR = 7.8 min K' = 2.9. Calculated monoisotopic mass (C67H89N12O26 Lu): 1,652.5 found: m/z = 1,653.9 [M+H]^+. [^natLu]DOTAGA-(4-NH2)f-y-nal-k(Suc-(HO-δ-orn-γ-EuE))-OH ([^natLu]PSMA-8): HPLC (10 to 60 % B in 15 min): tR = 7.3 min K' = 2.7. Calculated monoisotopic mass (C67H99N14O27Lu): 1,814.6 found: m/z = 1,815.9 [M+H]^+, 908.3 [M+2H]^2+. [^natLu]DOTAGA-(4-NH2)F-y-nal-k(Suc-(HO-δ-orn-γ-EuE))-OH ([^natLu]PSMA-9): HPLC (10 to 60 % B in 15 min): tR = 7.2 min K' = 2.6. Calculated monoisotopic mass (C67H99N14O27Lu): 1,814.6 found: m/z = 1,815.6 [M+H]^+, 908.3 [M+2H]^2+. [^natLu]DOTAGA-y-nal-k(Glut-(l-f)-KuE) ([^natLu]PSMA-10): HPLC (25 to 55% B in 15 min): tR = 10.6 min K' = 4.9. Calculated monoisotopic mass (C73H94IN12O24Lu): 1,825.5 found: m/z = 1,826.5 [M+H]^+, 913.8 [M+2H]^2+. [^natLu]DOTAGA-(4-NH2)f-y-nal-k(Glut-(l-f)-KuE) ([^natLu]PSMA-11): HPLC (10 to 60% B in 20 min): tR = 9.7 min K' = 3.9. Calculated monoisotopic mass (C82H104IN14O25Lu): 1,986.6 found: m/z = 1,987.5 [M+H]^+, 994.3 [M+2H]^2+.
The reaction solution was incubated for 10 min at RT, loaded on a cartridge and rinsed with 10 mL water (C18 Sep Pak Plus cartridge, preconditioned with 10 mL MeOH and 10 mL water). After elution with 2.0 mL of a 1:1 mix (v/v) of EtOH/MeCN, the radioactive solution was evaporated to dryness under a gentle nitrogen stream and treated with 200 µL TFA for 30 min with subsequent evaporation of TFA.
After removal of the culture medium, the cells were treated once with 500 µL of HBSS (Hank's balanced salt solution, Biochrom, Berlin, Germany, with addition of 1% bovine serum albumin (BSA)) and left 15 min on ice for equilibration in 200 µL HBSS (1% BSA). […] All experiments were performed at least three times for each concentration. After 60 min incubation on ice, the experiment was terminated by removal of the medium and consecutive rinsing with 200 µL of HBSS. The media of both steps were combined in one fraction and represent the amount of free radioligand. Afterwards, the cells were lysed with 250 µL of 1.0 M NaOH and united with the 200 µL HBSS of the following wash step. Quantification of bound and free radioligand was accomplished in a γ-counter.

[2] = target: T1, PSMA; assay: Internalization of radiolabeled PSMA inhibitors into cells (PMPA blockade); type: cell-based; set-up: endogenous in cells; LNCaP is named only for the xenografts; details: 177Lu-labeled inhibitors, 37°C; reference basis of the % not stated
Procedure: The ^177Lu-labeled compounds, for in vitro studies, were prepared as previously described (Sosabowski, J.K. and S.J. Mather, Conjugation of DOTA-like chelating agents to peptides and radiolabeling with trivalent metallic isotopes. Nat. Protocols, 2006. 1(2): p. 972-976) with minor modifications and used without further purification. In short, to a reaction volume of 10 µL 1.0 M NH4OAc buffer pH = 5.9 was added 0.75 to 1.0 nmol tracer (7.5 to 10 µL), 10 to 40 MBq ^177LuCl3 (Specific Activity (AS) > 3000 GBq/mg, 740 MBq/mL, 0.04 M HCl, ITG, Garching, Germany) and finally filled up to 100 µL with trace-pure Water (Merck, Darmstadt, Germany). The reaction mixture was heated for 30 min at 95°C and the radiochemical purity was determined using Radio-TLC.
[…] Each well was treated with either 25 µL of either DMEM-F12 (5% BSA) or a 100 µM PMPA solution for blockade. Next, 25 µL of the respective ^68Ga-and ^177Lu-labeled PSMA inhibitors (2.0 nM / 5.0 nM) was added and the cells incubated at 37°C for 5, 15, 30 and 60 min, respectively. The experiment was terminated by placing the 24-well plate on ice for 3 min and consecutive removal of the medium. Each well was rinsed with 250 µL HBSS and the fractions from these first two steps combined, representing the amount of free radioligand. Removal of surface bound activity was accomplished by incubation of the cells with 250 µL of ice-cold PMPA (10 µM in PBS) solution for 5 min and rinsed again with another 250 µL of ice-cold PBS. The internalized activity was determined by incubation of the cells in 250 µL 1.0 M NaOH and the combination with the fraction of a subsequent wash step with 250 µL 1.0 M NaOH. Each experiment (control and blockade) was performed in triplicate for each time point. Free, surface bound and internalized activity was quantified in a γ-counter.

| IC50 [1] [nM] | Internalization [%] [2] [%] | affinity, fold higher than [Lu]PSMA DKFZ 617 ([1]; relative to [Lu]PSMA DKFZ 617) | affinity, fold higher than [Lu]PSMA I&T ([1]; relative to [Lu]PSMA I&T) | SMILES |
| --- | --- | --- | --- | --- |
| 6.1 ± 1.6 | 118.6 ± 0.5 |  |  | O=C(O)CC[C@H](NC(=O)N[C@@H](CCCCNC(=O)[C@@H](Cc1ccc(I)cc1)NC(=O)CCCC(=O)NCCCC[C@@H](NC(=O)[C@@H](Cc1ccc2ccccc2c1)NC(=O)[C@@H](Cc1ccc(O)cc1)NC(=O)CCC(C(=O)O)N1CCN(CC(=O)O)CCN(CC(=O)O)CCN(CC(=O)O)CC1)C(=O)O)C(=O)O)C(=O)O (stereo partly drawn) [[^nat/177Lu]PSMA-10, DOTAGA-y-nal-k(Glut-(l-f)-KuE), metal not drawn, reference compound] |
| 2.3 ± 0.6 | 122.15 ± 1.3 |  |  | Nc1ccc(C[C@@H](NC(=O)CCC(C(=O)O)N2CCN(CC(=O)O)CCN(CC(=O)O)CCN(CC(=O)O)CC2)C(=O)N[C@H](Cc2ccc(O)c(I)c2)C(=O)N[C@H](Cc2ccccc2)C(=O)N[C@H](CCCCNC(=O)CCCCCCC(=O)NCCCC[C@H](NC(=O)N[C@@H](CCC(=O)O)C(=O)O)C(=O)O)C(=O)O)cc1 (stereo partly drawn) [[^nat/177Lu]PSMA-2, DOTAGA-(4-NH2)f-(l-y)-f-k-KuE, metal not drawn] ({DOTAGA}-[dPhe(4-NH2)][dTyr(3-I)][dF][dK](X1)-OH) |
| 2.1 ± 0.8 | 71.7 ± 0.7 |  |  | O=C(O)CC[C@H](NC(=O)N[C@@H](CCCCNC(=O)CCCCCCC(=O)NCCCC[C@@H](NC(=O)[C@@H](Cc1ccc2ccccc2c1)NC(=O)[C@@H](Cc1ccc(O)cc1)NC(=O)CCC(C(=O)O)N1CCN(CC(=O)O)CCN(CC(=O)O)CCN(CC(=O)O)CC1)C(=O)O)C(=O)O)C(=O)O (stereo partly drawn) [[^nat/177Lu]PSMA-4, DOTAGA-y-nal-k-KuE, metal not drawn, reference compound] |
| 1.1 ± 0.1 | 108.8 ± 2.5 | more than 3 fold | around 7 fold | Nc1ccc(C[C@H](NC(=O)CCC(C(=O)O)N2CCN(CC(=O)O)CCN(CC(=O)O)CCN(CC(=O)O)CC2)C(=O)N[C@H](Cc2ccc(O)cc2)C(=O)N[C@H](Cc2ccc3ccccc3c2)C(=O)N[C@H](CCCCNC(=O)CCCCCCC(=O)NCCCC[C@H](NC(=O)N[C@@H](CCC(=O)O)C(=O)O)C(=O)O)C(=O)O)cc1 (stereo partly drawn) [[^nat/177Lu]PSMA-6, DOTAGA-(4-NH2)F-y-nal-k-KuE, metal not drawn] ({DOTAGA}-[Phe(4-NH2)][dY][d2Nal][dK](X1)-OH) |
| 2.8 ± 0.3 | 166.92 ± 2.4 |  |  | Nc1ccc(C[C@H](NC(=O)CCC(C(=O)O)N2CCN(CC(=O)O)CCN(CC(=O)O)CCN(CC(=O)O)CC2)C(=O)N[C@H](Cc2ccc(O)c(I)c2)C(=O)N[C@H](Cc2ccccc2)C(=O)N[C@H](CCCCNC(=O)CCCCCCC(=O)NCCCC[C@H](NC(=O)N[C@@H](CCC(=O)O)C(=O)O)C(=O)O)C(=O)O)cc1 (stereo partly drawn) [[^nat/177Lu]PSMA-3, DOTAGA-(4-NH2)F-(l-y)-f-k-KuE, metal not drawn] ({DOTAGA}-[Phe(4-NH2)][dTyr(3-I)][dF][dK](X1)-OH) |
